Assays:
Assay type in all cases: biochemical
thrombin-A2M [1] = target: T1, thrombin-A2M (Homo sapiens, UniProt P00734); assay: Further comparison of reactivities (Example 3), change in absorbance; conditions: reactant thrombin-A2M
T1 construct: 0.2 mg thrombin (Enzyme Research Laboratories, South Bend, 1N, USA)/mL HBS; purchased Enzyme Research Laboratories (thrombin); Sigma (A2M)
Experimental: (§1) Thrombin and thrombin-A2M were added to samples of S2238 and S2238-Agarose.

thrombin [2] = target: T2, thrombin (Homo sapiens, UniProt P00734); assay: as above; conditions: reactant Thrombin
T2 construct: 0.2 mg thrombin (Enzyme Research Laboratories, South Bend, 1N, USA)/mL HBS; purchased Enzyme Research Laboratories
Experimental: as §1

human alpha thrombin = target: T3, human alpha thrombin (Homo sapiens, UniProt P00734); assay: Reaction of thrombin with S2238 SEPHAROSE beads or free S2238, absorbance at 405 nm of supernatant; conditions: + thrombin + TSP buffer; 100 nM thrombin, 23° C.
T3 construct: 100 nM human alpha thrombin (Enzyme Research Laboratories); purchased Enzyme Research Laboratories
Experimental: 0.5 mL of resuspended S2238 SEPHAROSE™ beads was placed in each of 2 microfuge tubes (1.5 mL capacity), followed by centrifugation at 12000 g for 1 minute and removal of the resultant supernatant. Beads in each tube were resuspended in 0.5 mL of 0.02 M Tris-HCl 0.15 M NaCl 0.6% polyethylene glycol 8000 pH 7.4 (TSP), centrifuged for 1 minute and the resultant supernatant discarded. A solution of 100 nM human alpha thrombin (Enzyme Research Laboratories) in TSP was prepared. 0.5 mL of thrombin was added to one tube of packed S2238 SEPHAROSE™ beads (tube 1) and 0.5 mL of TSP was added to the other tube of S2238-SEPHAROSE™ beads (tube 2). In a separate empty tube, 0.05 mL of free (not conjugated to beads) S2238 stock solution (12.5 mg of S2238/mL of H2O)+0.15 mL of TSP+0.5 mL of 100 nM thrombin were added (tube 3). Finally, in a separate empty tube, 0.05 mL of free S2238 stock solution+0.65 mL of TSP were added (tube 4). All of the tubes were capped and tubes+contents were gently shaken by inversion manually for 10 min at 23° C. Following inversion mixing, tubes were centrifuged at 12000 g for 1 min and 0.2 mL of supernatant fluid from each tube quickly removed to separate wells of a 96-well microtitre plate and the absorbance at 405 nm measured.

thrombin-A2M [3] = target: T1, thrombin-A2M; assay: Reaction of soluble S2238 in 96-well plate, change in absorbance at 405 nm over 100 seconds; conditions: for ΔA: absorbance 405 nm over 100 seconds
Experimental: (§2) A solution of 0.05M HEPES 0.15M NaCl pH 7.5 (HBS) was prepared. Thrombin-A2M was prepared by reaction of 40 μL of 5 mg A2M (Sigma)/mL+40 μL of 0.2 mg thrombin (Enzyme Research Laboratories, South Bend, 1N, USA)/mL HBS for 40 to 60 minutes at 23° C. (solution #1). Solutions of 40 μL of 5 mg A2M/mL+40 μL HBS (solution #2) and 40 μL of 0.2 mg thrombin/mL+40 μL HBS (solution #3) were prepared.
(§3) The following reactions with S2238 were carried out in 96-well plate wells. • 1. 5 μL of solution #1 were added to 10 uL of 0.5 mg antithrombin (purified antithrombin III protein, Affinity Biologicals, Ancaster, Ontario, Canada)/mL HBS+1 μL of 100 U heparin (Leo Laboratories, Ajax, Ontario, Canada)/mL HBS+74 μL HBS. After 10 minutes, 10 μL of 3.192 mg S2238/mL H2O was added with mixing, absorbance readings at 405 nm measured every 10 seconds for 100 seconds and the change in absorbance over that time recorded (AA). • 2. 5 μL of solution #2 were added to 10 uL of 0.5 mg antithrombin/mL HBS+1 μL of 100 U heparin/mL HBS+74 μL HBS. After 10 minutes, 10 μL of 3.192 mg S2238/mL H2O was added with mixing, absorbance readings at 405 nm measured every 10 seconds for 100 seconds and the change in absorbance over that time recorded (AA). • 3. 5 μL of solution #3 were added to 10 uL of 0.5 mg antithrombin/mL HBS+1 μL of 100 U heparin/mL HBS+74 μL HBS. After 10 minutes, 10 μL of 3.192 mg S2238/mL H2O was added with mixing, absorbance readings at 405 nm measured every 10 seconds for 100 seconds and the change in absorbance over that time recorded (AA). • 4. 5 μL of solution #1 were added to 85 uL of HBS. After 10 minutes, 10 μL of 3.192 mg S2238/mL H2O was added with mixing, absorbance readings at 405 nm measured every 10 seconds for 100 seconds and the change in absorbance over that time recorded (AA). • 5. 5 μL of solution #2 were added to 85 uL of HBS. After 10 minutes, 10 μL of 3.192 mg S2238/mL H2O was added with mixing, absorbance readings at 405 nm measured every 10 seconds for 100 seconds and the change in absorbance over that time recorded (AA). • 6. 5 μL of solution #3 were added to 85 uL of HBS. After 10 minutes, 10 μL of 3.192 mg S2238/mL H2O was added with mixing, absorbance readings at 405 nm measured every 10 seconds for 100 seconds and the change in absorbance over that time recorded (LA).

thrombin [4] = target: T2, thrombin; assay: as above; conditions: for ΔA: absorbance 405 nm over 100 seconds
Experimental: as §2, §3

A2M = target: T4, A2M (Homo sapiens, UniProt P01023); assay: as above; conditions: absorbance 405 nm over 100 seconds
T4 construct: purchased Sigma
T4 sequence (P01023 24-1474): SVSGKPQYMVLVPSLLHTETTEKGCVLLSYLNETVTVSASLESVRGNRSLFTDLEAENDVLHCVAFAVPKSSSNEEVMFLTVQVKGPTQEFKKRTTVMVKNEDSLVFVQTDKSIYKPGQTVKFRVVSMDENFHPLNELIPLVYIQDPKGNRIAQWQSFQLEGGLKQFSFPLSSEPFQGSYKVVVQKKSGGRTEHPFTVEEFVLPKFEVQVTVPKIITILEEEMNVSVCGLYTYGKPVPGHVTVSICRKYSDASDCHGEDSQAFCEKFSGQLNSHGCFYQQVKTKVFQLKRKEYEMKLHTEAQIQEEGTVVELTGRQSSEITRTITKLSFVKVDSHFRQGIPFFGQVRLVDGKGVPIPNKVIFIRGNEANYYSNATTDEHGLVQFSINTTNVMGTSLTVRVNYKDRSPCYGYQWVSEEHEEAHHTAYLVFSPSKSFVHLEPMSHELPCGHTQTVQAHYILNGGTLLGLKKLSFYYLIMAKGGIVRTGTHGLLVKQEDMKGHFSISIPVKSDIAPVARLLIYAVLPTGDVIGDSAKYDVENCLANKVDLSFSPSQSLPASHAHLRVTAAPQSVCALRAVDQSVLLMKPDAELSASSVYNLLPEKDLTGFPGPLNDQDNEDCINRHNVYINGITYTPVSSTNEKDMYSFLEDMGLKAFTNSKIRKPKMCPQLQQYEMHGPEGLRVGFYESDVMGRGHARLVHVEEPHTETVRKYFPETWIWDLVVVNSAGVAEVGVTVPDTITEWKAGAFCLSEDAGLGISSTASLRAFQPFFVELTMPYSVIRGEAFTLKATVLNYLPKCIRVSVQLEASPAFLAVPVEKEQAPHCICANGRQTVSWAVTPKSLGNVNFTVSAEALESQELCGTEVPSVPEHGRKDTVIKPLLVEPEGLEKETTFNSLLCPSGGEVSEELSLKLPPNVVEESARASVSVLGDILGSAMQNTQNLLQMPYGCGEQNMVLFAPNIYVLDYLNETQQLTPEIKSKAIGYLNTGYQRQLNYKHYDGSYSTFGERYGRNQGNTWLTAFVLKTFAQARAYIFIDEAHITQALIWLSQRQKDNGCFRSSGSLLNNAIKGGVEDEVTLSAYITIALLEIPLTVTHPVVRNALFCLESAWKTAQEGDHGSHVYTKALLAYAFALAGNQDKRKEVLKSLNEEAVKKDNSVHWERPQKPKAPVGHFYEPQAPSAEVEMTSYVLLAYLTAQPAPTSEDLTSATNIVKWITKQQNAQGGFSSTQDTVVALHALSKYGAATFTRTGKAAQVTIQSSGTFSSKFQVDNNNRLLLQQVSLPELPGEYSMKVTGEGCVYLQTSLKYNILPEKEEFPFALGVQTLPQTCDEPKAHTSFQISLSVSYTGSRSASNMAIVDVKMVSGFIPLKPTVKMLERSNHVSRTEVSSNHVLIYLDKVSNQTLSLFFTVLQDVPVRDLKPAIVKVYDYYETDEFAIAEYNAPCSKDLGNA
Experimental: as §2, §3

[5] = test system: Total Thrombin (Free Thrombin+Thrombin-A2M); assay: Plasma thrombin generation, subsamples detected with free S2238 or S2238-Agarose; conditions: for Thrombin activity detected (absorbance at 405 nm), in words: plasma samples with free thrombin+thrombin-A2M, FIG. 5
Experimental: Plasma is taken and the fibrinogen removed by reaction with ancrod enzyme to form a fibrin clot that is wound out to give the resultant defibrinated plasma. At time zero, tissue factor (Thromborel S)+CaCl2 are added to start thrombin generation in the pre-warmed defibrinated plasma. At certain time points, subsamples from the reaction mixture are taken into Na2EDTA to stop further thrombin generation by chelating the Ca^2+. Thrombin activity in the time sample (containing both free thrombin and thrombin bound to alpha-2-macroglobulin (A2M)) was then detected by mixing with either free S2238 substrate in buffer or sterically hindered S2238 substrate (S2238-Agarose beads) suspended in buffer. In order to determine the ability of free S2238 or S2238-Agarose to detect thrombin-A2M, a similar experiment to the above method was carried out, except that all free thrombin was inhibited first by mixing with antithrombin+heparin prior to incubation with substrate. […] Thus, early time point samples (i.e. 60 seconds) would contain more free thrombin than thrombin-A2M, while later time point samples (i.e. 300 seconds) would contain much more thrombin-A2M than free thrombin.
12 mm (ID)×75 mm (L) polycarbonate plastic test tubes were used for plasma thrombin generation. • 1. Defibrination of Plasma: • a. 800 μL of Plasma was incubated with 10 μL of 30 U/mL Ancrod stock at 37° C. for 10 minutes. • b. After incubation, fibrin clot that formed was wound out on a plastic rod, leaving supernatant defibrinated plasma. • c. Test tube was placed on ice for 10 minutes. • d. After 10-minute incubation, any further clots were wound out. • e. Defibrinated plasma was stored on ice. • 2. The activator solution (12.5 μL Thromborel S+4.0 μL 1M CaCl2+183.5 μL HBS) was warmed at 37° C. in a tube. In a separate tube, 150 μL of defibrinated plasma was warmed at 37° C. • 3. At t=0, 150 μL of activator solution was mixed with 150 μL of defibrinated plasma, at 37° C. • 4. […] Aliquots of […] of supernatant from each sample were placed in 96-well plate wells and the absorbance at 405 nm measured.

thrombin-A2M [6] = target: T1, thrombin-A2M; assay: Plasma thrombin generation, free thrombin neutralized by antithrombin+heparin before substrate; conditions: plasma samples with thrombin-A2M only (free thrombin neutralized by antithrombin+heparin); FIG. 5
Experimental: Plasma is taken and the fibrinogen removed by reaction with ancrod enzyme to form a fibrin clot that is wound out to give the resultant defibrinated plasma. At time zero, tissue factor (Thromborel S)+CaCl2 are added to start thrombin generation in the pre-warmed defibrinated plasma. At certain time points, subsamples from the reaction mixture are taken into Na2EDTA to stop further thrombin generation by chelating the Ca^2+. Thrombin activity in the time sample (containing both free thrombin and thrombin bound to alpha-2-macroglobulin (A2M)) was then detected by mixing with either free S2238 substrate in buffer or sterically hindered S2238 substrate (S2238-Agarose beads) suspended in buffer. […]
12 mm (ID)×75 mm (L) polycarbonate plastic test tubes were used for plasma thrombin generation. • 1. […] Aliquots of 2004 of supernatant from each sample were placed in 96-well plate wells and the absorbance at 405 nm measured.
The experiment described above was repeated, except that at step 4, 25 μL of time sample was added to 5 μL of 50 U antithrombin/mL PBS (7.2 mg antithrombin/mL)+2 μl of 100 U heparin/mL 0.15M NaCl on ice. […] Absorbance detected at 405 nm was essentially due to substrate reaction with thrombin-A2M alone (free thrombin having been neutralized by antithrombin+heparin).

- Thrombin Activity (Δ absorbance/minute) (thrombin-A2M [1]): 0.48 Δ absorbance/minute
- Thrombin Activity (Δ absorbance/minute) (thrombin [2]): 0.57 Δ absorbance/minute
- Absorbance at 405 nm of supernatant after 10 minutes incubation and 1 minute centrifugation (human alpha thrombin): 1.143
- ΔA (thrombin-A2M [3]; Thrombin-A2M added): 0.8
- Reaction with thrombin-A2M (in words) (thrombin-A2M [3]; summary of Table 1): reacts readily
- ΔA (thrombin-A2M [3]; thrombin-A2M + antithrombin + heparin added): 0.8
- ΔA (thrombin [4]; Thrombin added): 0.95
- Reaction with free thrombin (in words) (thrombin [4]; summary of Table 1): reacts readily
- ΔA (thrombin [4]; thrombin + antithrombin + heparin added): 0
- ΔA (A2M; A2M + antithrombin + heparin added): 0
- ΔA (A2M; A2M added): 0
- Thrombin activity detected (absorbance at 405 nm), in words (thrombin-A2M [6]): significant thrombin activity
Substance: H-D-Phe-Pip-Arg-pNA [S2238]
- Which thrombin species accounts for the detected activity (comparison of samples) ([5]; comparison of free thrombin+thrombin-A2M samples with thrombin-A2M only samples, 60 sec or 300 sec): the vast majority of soluble S2238 activity is due to thrombin-A2M
- Thrombin activity detected (absorbance at 405 nm), in words ([5]; 60 seconds after plasma activation): significant activity
- Thrombin activity detected (absorbance at 405 nm), in words ([5]; 300 seconds after plasma activation): significant thrombin substrate activity
